Assays:
U251 = experiment: NCI in vitro DTP human cell line screen, U251; assay type: cell-based; conditions: CNS Cancer, 1.00E−5 Molar
Description: (§1) Then, a cell toxicity assay of the cancer lines made by National Cancer Institute will be discussed as follows. The cell toxicity assay is performed by choosing ten compounds (existing certification numbers) from the 59 compounds disclosed in the present invention first.

MDA-MB-231/ATCC = experiment: NCI in vitro DTP human cell line screen, MDA-MB-231/ATCC; assay type: cell-based; conditions: Breast Cancer, 1.00E−5 Molar
Description: as §1

HCT-15 = experiment: NCI in vitro DTP human cell line screen, HCT-15; assay type: cell-based; conditions: Colon Cancer, 1.00E−5 Molar
Description: as §1

RXF 393 = experiment: NCI in vitro DTP human cell line screen, RXF 393; assay type: cell-based; conditions: Renal Cancer, 1.00E−5 Molar
Description: as §1

MCF7 = experiment: NCI in vitro DTP human cell line screen, MCF7; assay type: cell-based; conditions: Breast Cancer, 1.00E−5 Molar
Description: as §1

[1] = MTT assay, HEL299 fibroblast; assay type: cell-based; conditions: human, HEL299, normal fibroblast; read-out: cell viabilities of HEL299 cell lines (MTT assay)
From the text: Please refer to FIG. 4C, various cell viabilities of the HEL299 cell lines can be obtained through the MTT assay while the compounds No. 1˜30 are used to treat HEL299 cell lines, wherein HEL299 cell lines are fibroblast.

OVCAR-8 = experiment: NCI in vitro DTP human cell line screen, OVCAR-8; assay type: cell-based; conditions: Ovarian Cancer, 1.00E−5 Molar
Description: as §1

EKVX = experiment: NCI in vitro DTP human cell line screen, EKVX; assay type: cell-based; conditions: Non-Small Cell Lung Cancer, 1.00E−5 Molar
Description: as §1

KM12 = experiment: NCI in vitro DTP human cell line screen, KM12; assay type: cell-based; conditions: Colon Cancer, 1.00E−5 Molar
Description: as §1

HOP-92 = experiment: NCI in vitro DTP human cell line screen, HOP-92; assay type: cell-based; conditions: Non-Small Cell Lung Cancer, 1.00E−5 Molar
Description: as §1

HCT-116 = experiment: NCI in vitro DTP human cell line screen, HCT-116; assay type: cell-based; conditions: Colon Cancer, 1.00E−5 Molar
Description: as §1

UACC-62 = experiment: NCI in vitro DTP human cell line screen, UACC-62; assay type: cell-based; conditions: Melanoma, 1.00E−5 Molar
Description: as §1

BT-549 = experiment: NCI in vitro DTP human cell line screen, BT-549; assay type: cell-based; conditions: Breast Cancer, 1.00E−5 Molar
Description: as §1

A3 cell lines = experiment: MTT assay, A3 cell lines (lung cancer stem cell); assay type: cell-based
From the text: Please to FIG. 4B, various cell viabilities of the A3 cell lines can be obtained through the MTT assay and illustrated in FIG. 4B while the compounds No. 1˜30 are used to treat A3 cell lines, wherein A3 cell lines are lung cancer stem cell.

60 cancer lines = experiment: NCI cell toxicity assay of 60 cancer lines, whole panel summary; assay type: cell-based, human; conditions: 1.00E−5 Molar
Description: as §1

SK-OV-3 = experiment: NCI in vitro DTP human cell line screen, SK-OV-3; assay type: cell-based; conditions: Ovarian Cancer, 1.00E−5 Molar
Description: as §1

K562 = experiment: NCI in vitro DTP human cell line screen, K562; assay type: cell-based; conditions: Leukemia, 1.00E−5 Molar
Description: as §1

SN12C = experiment: NCI in vitro DTP human cell line screen, SN12C; assay type: cell-based; conditions: Renal Cancer, 1.00E−5 Molar
Description: as §1

MDA-MB-468 = experiment: NCI in vitro DTP human cell line screen, MDA-MB-468; assay type: cell-based; conditions: Breast Cancer, 1.00E−5 Molar
Description: as §1

CCRF-CEM = experiment: NCI in vitro DTP human cell line screen, CCRF-CEM; assay type: cell-based; conditions: Leukemia, 1.00E−5 Molar
Description: as §1

SF-295 = experiment: NCI in vitro DTP human cell line screen, SF-295; assay type: cell-based; conditions: CNS Cancer, 1.00E−5 Molar
Description: as §1

UO-31 = experiment: NCI in vitro DTP human cell line screen, UO-31; assay type: cell-based; conditions: Renal Cancer, 1.00E−5 Molar
Description: as §1

MOLT-4 = experiment: NCI in vitro DTP human cell line screen, MOLT-4; assay type: cell-based; conditions: Leukemia, 1.00E−5 Molar
Description: as §1

OVCAR-4 = experiment: NCI in vitro DTP human cell line screen, OVCAR-4; assay type: cell-based; conditions: Ovarian Cancer, 1.00E−5 Molar
Description: as §1

SR = experiment: NCI in vitro DTP human cell line screen, SR; assay type: cell-based; conditions: Leukemia, 1.00E−5 Molar
Description: as §1

MDA-MB-435 = experiment: NCI in vitro DTP human cell line screen, MDA-MB-435; assay type: cell-based; conditions: Melanoma, 1.00E−5 Molar
Description: as §1

HT29 = experiment: NCI in vitro DTP human cell line screen, HT29; assay type: cell-based; conditions: Colon Cancer, 1.00E−5 Molar
Description: as §1

NCI-H226 = experiment: NCI in vitro DTP human cell line screen, NCI-H226; assay type: cell-based; conditions: Non-Small Cell Lung Cancer, 1.00E−5 Molar
Description: as §1

SW-620 = experiment: NCI in vitro DTP human cell line screen, SW-620; assay type: cell-based; conditions: Colon Cancer, 1.00E−5 Molar
Description: as §1

CAKI-1 = experiment: NCI in vitro DTP human cell line screen, CAKI-1; assay type: cell-based; conditions: Renal Cancer, 1.00E−5 Molar
Description: as §1

MALME-3M = experiment: NCI in vitro DTP human cell line screen, MALME-3M; assay type: cell-based; conditions: Melanoma, 1.00E−5 Molar
Description: as §1

NCI-H322M = experiment: NCI in vitro DTP human cell line screen, NCI-H322M; assay type: cell-based; conditions: Non-Small Cell Lung Cancer, 1.00E−5 Molar
Description: as §1

SK-MEL-28 = experiment: NCI in vitro DTP human cell line screen, SK-MEL-28; assay type: cell-based; conditions: Melanoma, 1.00E−5 Molar
Description: as §1

SNB-19 = experiment: NCI in vitro DTP human cell line screen, SNB-19; assay type: cell-based; conditions: CNS Cancer, 1.00E−5 Molar
Description: as §1

NCI-H522 = experiment: NCI in vitro DTP human cell line screen, NCI-H522; assay type: cell-based; conditions: Non-Small Cell Lung Cancer, 1.00E−5 Molar
Description: as §1

HOP-62 = experiment: NCI in vitro DTP human cell line screen, HOP-62; assay type: cell-based; conditions: Non-Small Cell Lung Cancer, 1.00E−5 Molar
Description: as §1

NCI-H23 = experiment: NCI in vitro DTP human cell line screen, NCI-H23; assay type: cell-based; conditions: Non-Small Cell Lung Cancer, 1.00E−5 Molar
Description: as §1

SF-268 = experiment: NCI in vitro DTP human cell line screen, SF-268; assay type: cell-based; conditions: CNS Cancer, 1.00E−5 Molar
Description: as §1

HL-60(TB) = experiment: NCI in vitro DTP human cell line screen, HL-60(TB); assay type: cell-based; conditions: Leukemia, 1.00E−5 Molar
Description: as §1

COLO 205 = experiment: NCI in vitro DTP human cell line screen, COLO 205; assay type: cell-based; conditions: Colon Cancer, 1.00E−5 Molar
Description: as §1

DU145 = experiment: NCI in vitro DTP human cell line screen, DU145; assay type: cell-based; conditions: Prostate Cancer, 1.00E−5 Molar
Description: as §1

HCC-2998 = experiment: NCI in vitro DTP human cell line screen, HCC-2998; assay type: cell-based; conditions: Colon Cancer, 1.00E−5 Molar
Description: as §1

A control cell lines = experiment: MTT assay, A control cell lines (lung cancer cell); assay type: cell-based
From the text: Please refer to Table 1 and FIGS. 4A-4C. According to a MTT assay (Table 1), various cell viabilities of the A control cell lines can be obtained and illustrated in FIG. 4A while the compounds No. 2˜30 are used to treat A control cell lines, wherein A control cell lines are lung cancer cell.

RPMI-8226 = experiment: NCI in vitro DTP human cell line screen, RPMI-8226; assay type: cell-based; conditions: Leukemia, 1.00E−5 Molar
Description: as §1

SK-MEL-5 = experiment: NCI in vitro DTP human cell line screen, SK-MEL-5; assay type: cell-based; conditions: Melanoma, 1.00E−5 Molar
Description: as §1

UACC-257 = experiment: NCI in vitro DTP human cell line screen, UACC-257; assay type: cell-based; conditions: Melanoma, 1.00E−5 Molar
Description: as §1

[2] = summary of MTT cell viabilities

With `O=c1c2ccccc2sc2c(Cl)c(SCc3ccccc3)ccc12` [No. 23, 3-(Benzylthio)-4-chloro-9H-thioxanthen-9-one] the “Growth Percent” value (U251) was 38.89%, the “Growth Percent” value (MDA-MB-231/ATCC) was 71.98% and the “Growth Percent” value (HCT-15) was 82.20%. The “Growth Percent” value (RXF 393) was 106.84%, the “Growth Percent” value (MCF7) was 89.62% and the viability [1] was 82.5%. The “Growth Percent” value (OVCAR-8) was 82.11%, the “Growth Percent” value (EKVX) was 93.46% and the “Growth Percent” value (KM12) was 104.90%. For the same compound, the “Growth Percent” value (HOP-92) was 74.60%, the “Growth Percent” value (HCT-116) was 41.74% and the “Growth Percent” value (UACC-62) was 90.92%. For the same compound, the “Growth Percent” value (BT-549) was 84.98%, the “cell viabilities of A3 cell lines (MTT assay)” value (A3 cell lines; A3, lung cancer stem cell) was 65.9% and the “inhibition effect on A3 cell line (in words)” value (A3 cell lines; [2]) was “inhibition effect”. For the same compound, the “Growth Percent, Mean” value (60 cancer lines; mean over all cell lines) was 81.22%, the “cancer types with the better inhibition effect (in words)” value (60 cancer lines; summary of Table 3) was “better inhibition effect on Leukemia, non-small cell lung cancer, colorectal cancer, central nervous system cancer, ovarian cancer and kidney cancer” and the “Growth Percent” value (SK-OV-3) was 94.39%. For the same compound, the “Growth Percent” value (K562) was 86.95%, the “Growth Percent” value (SN12C) was 79.25% and the “Growth Percent” value (MDA-MB-468) was 73.81%. For the same compound, the “Growth Percent” value (CCRF-CEM) was 59.07%, the “Growth Percent” value (SF-295) was 63.22% and the “Growth Percent” value (UO-31) was 66.76%. The “Growth Percent” value (MOLT-4) was 98.34%, the “Growth Percent” value (OVCAR-4) was 15.10% and the “Growth Percent” value (SR) was 36.57%. The “Growth Percent” value (MDA-MB-435) was 91.01%, the “Growth Percent” value (HT29) was 60.70% and the “Growth Percent” value (NCI-H226) was 90.97%. The “Growth Percent” value (SW-620) was 69.53%, the “Growth Percent” value (CAKI-1) was 54.75% and the “Growth Percent” value (MALME-3M) was 93.38%. For the same compound, the “Growth Percent” value (NCI-H322M) was 70.18%, the “Growth Percent” value (SK-MEL-28) was 119.10% and the “Growth Percent” value (SNB-19) was 83.57%. For the same compound, the “Growth Percent” value (NCI-H522) was 95.48%, the “Growth Percent” value (HOP-62) was 94.64% and the “Growth Percent” value (NCI-H23) was 97.59%. For the same compound, the “Growth Percent” value (SF-268) was 100.29%, the “Growth Percent” value (HL-60(TB)) was 115.59% and the “Growth Percent” value (COLO 205) was 63.36%. For the same compound, the “Growth Percent” value (DU145) was 107.70%, the “Growth Percent” value (HCC-2998) was 101.78% and the “cell viabilities of A control cell lines (MTT assay)” value (A control cell lines; A control, lung cancer cell) was 36.6%. The “inhibition effect on A control cell line (in words)” value (A control cell lines; [2]) was “inhibition effect”, the “Growth Percent” value (RPMI-8226) was 89.98% and the “Growth Percent” value (SK-MEL-5) was 99.73%. For the same compound, the “Growth Percent” value (UACC-257) was 109.84%.
